Measured values taken from patent US10711004B2 (Genentech, Inc., priority 2018, dated 2020).
Where two headings read alike, the source gives them in different places.

Molecular target: human TRPA1 channel (Homo sapiens (Human), UniProt O75762)
Assay: hTRPA1 CHO Ca2+ FLIPR Tetra assay, block of cinnamaldehyde induced calcium influx
Assay type: cell-based
Details: for IC50: CHO cells expressing TRPA1, Hill coefficient fixed to 1.5
Experimental: CHO cells expressing TRPA1 were plated into 384-well plates, incubated overnight at 37° C., and loaded with BD calcium indicator dye for 1 hr at 37° C. followed by 15 minutes at room temperature. The assay buffer was Hank's Balanced Salt Solution (HBSS) containing 20 mM HEPES (pH readjusted to 7.4) along with 0.02% BSA.
Following dye load and plate cool down, compounds were added to the cells using FLIPR Tetra. Plates were then incubated with compounds for 10 minutes or 90 minutes at room temperature prior to adding agonist. Following this incubation, about an EC50 concentration of cinnamaldehyde (75) was added to active the channels and block of cinnamaldehyde induced calcium influx was measured.
Fixing the Hill coefficient will generally reduce variability of the IC50 determination. The IC50 results were individually examined to make sure the MIN and MAX points were set correctly prior to validation of the results.

[1] = read-out: hTRPA1 IC50 (10 min), compounds incubated 10 minutes at room temperature before cinnamaldehyde agonist
[2] = read-out: hTRPA1 IC50 (90 min), compounds incubated 90 minutes at room temperature before cinnamaldehyde agonist

Sequence of human TRPA1 channel (O75762 whole entry): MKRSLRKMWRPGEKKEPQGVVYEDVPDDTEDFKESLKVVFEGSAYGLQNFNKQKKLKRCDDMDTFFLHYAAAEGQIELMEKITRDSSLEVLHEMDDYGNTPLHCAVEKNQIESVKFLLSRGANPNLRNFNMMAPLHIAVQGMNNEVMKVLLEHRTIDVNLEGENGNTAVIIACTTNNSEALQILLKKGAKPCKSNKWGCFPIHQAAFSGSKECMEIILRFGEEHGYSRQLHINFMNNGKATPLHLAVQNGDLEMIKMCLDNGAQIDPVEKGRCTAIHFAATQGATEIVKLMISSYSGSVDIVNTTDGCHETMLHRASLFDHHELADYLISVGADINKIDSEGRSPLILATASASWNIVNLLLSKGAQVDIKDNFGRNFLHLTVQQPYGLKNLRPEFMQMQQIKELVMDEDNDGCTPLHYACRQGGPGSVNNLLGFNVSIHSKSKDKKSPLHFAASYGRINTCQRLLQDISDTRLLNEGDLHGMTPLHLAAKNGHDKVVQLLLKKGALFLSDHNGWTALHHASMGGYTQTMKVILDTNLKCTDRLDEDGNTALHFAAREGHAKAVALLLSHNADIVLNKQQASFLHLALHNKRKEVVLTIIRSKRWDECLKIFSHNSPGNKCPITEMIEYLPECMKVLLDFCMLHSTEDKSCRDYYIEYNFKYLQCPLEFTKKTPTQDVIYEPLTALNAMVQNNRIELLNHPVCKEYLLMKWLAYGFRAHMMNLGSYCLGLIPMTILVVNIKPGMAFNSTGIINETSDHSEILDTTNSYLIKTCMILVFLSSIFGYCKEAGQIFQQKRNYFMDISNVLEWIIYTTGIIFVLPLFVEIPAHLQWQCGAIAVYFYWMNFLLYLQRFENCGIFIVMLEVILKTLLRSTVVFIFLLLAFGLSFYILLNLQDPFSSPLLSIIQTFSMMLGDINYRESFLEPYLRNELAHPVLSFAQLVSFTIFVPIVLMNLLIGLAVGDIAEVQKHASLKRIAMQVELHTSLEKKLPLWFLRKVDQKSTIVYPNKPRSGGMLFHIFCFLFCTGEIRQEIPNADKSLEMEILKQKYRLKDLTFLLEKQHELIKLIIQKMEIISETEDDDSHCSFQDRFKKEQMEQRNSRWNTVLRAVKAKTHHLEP

Compound | IC50 [1] | IC50 [2] | TRPA1 IC50 compared with 3-azabicyclo[3.1.0]hexene linker and cyclobutylene linker analogues (bicyclo[3.1.0]hexene linker compounds versus same-substituent analogues (compounds 16, 191; 26, 1))
Cn1cnc2ncn(Cc3nc([C@H]4[C@@H]5CN(c6cccc(C#N)n6)C[C@@H]54)no3)c(=O)c21 [Example Compound 171, 6-((1R,5S,6r)-6-(5-((7-methyl-6-oxo-6,7-dihydro-1H-purin-1-yl)methyl)-1,2,4-oxadiazol-3-yl)-3-azabicyclo[3.1.0]hexan-3-yl)picolinonitrile] | 271 nM | 89 nM | –
Cn1cnc2ncn(Cc3nc([C@H]4[C@@H]5CN(c6ccc(Cl)cn6)C[C@@H]54)no3)c(=O)c21 [Example Compound 205, 1-((3-((1R,5S,6r)-3-(5-chloropyridin-2-yl)-3-azabicyclo[3.1.0]hexan-6-yl)-1,2,4-oxadiazol-5-yl)methyl)-7-methyl-1,7-dihydro-6H-purin-6-one] | 496 nM | 86 nM | –
Cn1cnc2ncn(Cc3nc([C@H]4[C@@H]5CN(C[C@@H](F)c6ccc(Cl)cc6)C[C@@H]54)no3)c(=O)c21 [Example Compound 156, 1-((3-((1R,5S,6S)-3-((S)-2-(4-chlorophenyl)-2-fluoroethyl)-3-azabicyclo[3.1.0]hexan-6-yl)-1,2,4-oxadiazol-5-yl)methyl)-7-methyl-1,7-dihydro-6H-purin-6-one] | 843 nM | 860 nM | –
Cn1cnc2ncn(Cc3nc([C@H]4C[C@H](C(=O)c5cccc(Cl)c5)C4)no3)c(=O)c21 [Example Compound 101, 1-((3-((1r,3r)-3-(3-chlorobenzoyl)cyclobutyl)-1,2,4-oxadiazol-5-yl)methyl)-7-methyl-1,7-dihydro-6H-purin-6-one] | 117 nM | 64 nM | –

Now those with a lower IC50 [1], led by results:

IC50 [1] | IC50 [2] | TRPA1 IC50 compared with 3-azabicyclo[3.1.0]hexene linker and cyclobutylene linker analogues (bicyclo[3.1.0]hexene linker compounds versus same-substituent analogues (compounds 16, 191; 26, 1)) | Compound
21.7 nM | 10 nM | – | Cn1cnc2ncn(Cc3nc([C@H]4[C@@H]5CN(c6ccc(Cl)c(F)c6)C[C@@H]54)no3)c(=O)c21 [Example Compound 229, 1-((3-((1R,5S,6r)-3-(4-chloro-3-fluorophenyl)-3-azabicyclo[3.1.0]hexan-6-yl)-1,2,4-oxadiazol-5-yl)methyl)-7-methyl-1,7-dihydro-6H-purin-6-one]
36 nM | 24 nM | – | Cn1cnc2ncn(Cc3nc([C@H]4[C@@H]5C=C(c6ccc7scnc7c6)C[C@@H]54)no3)c(=O)c21 [Example Compound 112, 1-((3-((1S,5S,6R)-3-(benzo[d]thiazol-5-yl)bicyclo[3.1.0]hex-2-en-6-yl)-1,2,4-oxadiazol-5-yl)methyl)-7-methyl-1,7-dihydro-6H-purin-6-one]
21.6 nM | 9.9 nM | improved TRPA1 IC50 values | Cn1cnc2ncn(Cc3nc([C@@H]4[C@H]5C=C(c6ccccc6)C[C@H]54)no3)c(=O)c21 [Example Compound 226, 7-methyl-1-((3-((1R,5R,6S)-3-phenylbicyclo[3.1.0]hex-2-en-6-yl)-1,2,4-oxadiazol-5-yl)methyl)-1,7-dihydro-6H-purin-6-one]
63.8 nM | – | – | Cc1ccnc2ncn(Cc3nc([C@H]4C[C@H](c5ccc(OC(F)(F)F)cc5)C4)no3)c(=O)c12
15.8 nM | 3.1 nM | – | Cn1cnc2ncn(Cc3nc([C@H]4[C@@H]5C=C(c6ccc7ncsc7c6)C[C@@H]54)no3)c(=O)c21 [Example Compound 278, 7-methyl-1-[[3-[(1S,5S,6R)-3-(1,3-benzothiazol-6-yl)-6-bicyclo[3.1.0]hex-2-enyl]-1,2,4-oxadiazol-5-yl]methyl]purin-6-one]
50.4 nM | – | – | Cn1cnc2ncn(Cc3nc([C@H]4[C@@H]5CN(c6ccc(OC(F)F)cc6)C[C@@H]54)no3)c(=O)c21 [Example Compound 12, 7-methyl-1-[[3-[(1R,5S,6 r)-3-[4-(difluoromethoxy)phenyl]-3-azabicyclo[3.1.0]hexan-6-yl]-1,2,4-oxadiazol-5-yl]methyl]purin-6-one]
